Assay results from PMC5983740, “Tryptophan-Containing Dual Neuroprotective Peptides: Prolyl Endopeptidase Inhibition and Caenorhabditis elegans Protection from β-Amyloid Peptide Toxicity” (International Journal of Molecular Sciences, 2018).
pIC50: −log10 of the molar value. Ends that are not written are not given here.

Key:
[1] = test system: C. elegans wild-type strain N2; assay: C. elegans oxidative stress assay (H2O2); format: in vivo, Caenorhabditis elegans; conditions: 2 mM H2O2 for 5 h
Description: (§1) Wild-type Bristol strain N2 and the transgenic strain CL4176 (smg-1^ts [pAF29(myo-3/Aβ1–42/let UTR) + pRF4(rol-6(su10069))]) were obtained from the Caenorhabditis Genetics Center (College of Biological Sciences, University of Minnesota, Saint Paul, MN, USA) and were used for oxidative stress experiments and paralysis assays, respectively. C. elegans strains were routinely propagated on Nematode Growth Medium (NGM) plates with Escherichia coli strain OP50 as a food source at 20 °C (N2) or at 16 °C (CL4176). Worms were synchronized by isolating eggs from gravid adults at 20 °C (N2) or at 16 °C (CL4176), and eggs were hatched overnight in NGM plates.
(§2) In the oxidative and paralysis experiments, worms were fed with the different compounds from egg to adult stages, and transferred to new plates every two days.
For oxidative stress experiments, strain N2 was egg-synchronized in NGM plates (control medium) and NGM supplemented with 0.1 µg/mL peptides or 0.1 mg/mL vitamin C (positive control). The viability of C. elegans was assessed after 2 mM hydrogen peroxide (H2O2)-induced oxidative stress for 5 h. Experiments were carried out in triplicate.

[2] = target: T1, prolyl endopeptidase (PEP) (Elizabethkingia meningoseptica, UniProt P27028); assay: biochemical; format: biochemical; conditions: for PEP Residual Activity (%) / PEP inhibition (in words) / PEP inhibitory activity (% inhibition): peptide 1 mg/mL; for PEP Residual Activity (%): % of control without peptide (100%), pH 7, 30 °C, 30 min, mean ± SD of three replicates, SD; for PEP inhibition (in words): P-containing peptides; for PEP inhibition: highest concentration tested, 3.3 mg/mL
T1 construct: purchased Seikagaku Corporation (Tokyo, Japan)
T1 sequence (P27028 21-705): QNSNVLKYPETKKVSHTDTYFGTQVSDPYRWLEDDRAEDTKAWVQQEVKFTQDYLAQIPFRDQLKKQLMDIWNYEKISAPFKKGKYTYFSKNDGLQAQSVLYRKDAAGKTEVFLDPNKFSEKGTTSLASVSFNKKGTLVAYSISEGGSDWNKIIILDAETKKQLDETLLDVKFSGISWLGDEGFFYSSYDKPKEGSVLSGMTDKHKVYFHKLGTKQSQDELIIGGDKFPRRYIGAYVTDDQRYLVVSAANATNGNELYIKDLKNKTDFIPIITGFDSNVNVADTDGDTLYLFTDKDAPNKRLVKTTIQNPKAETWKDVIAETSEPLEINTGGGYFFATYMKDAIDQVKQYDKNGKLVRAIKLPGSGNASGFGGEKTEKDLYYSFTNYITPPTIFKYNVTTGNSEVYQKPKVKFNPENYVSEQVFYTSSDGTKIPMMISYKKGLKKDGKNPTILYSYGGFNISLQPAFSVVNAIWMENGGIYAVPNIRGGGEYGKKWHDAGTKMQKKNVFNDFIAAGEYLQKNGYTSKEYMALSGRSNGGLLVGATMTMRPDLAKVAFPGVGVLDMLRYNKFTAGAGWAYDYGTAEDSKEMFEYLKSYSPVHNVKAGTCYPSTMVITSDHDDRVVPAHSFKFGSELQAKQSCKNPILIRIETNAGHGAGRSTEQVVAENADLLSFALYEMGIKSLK
Description: The PEP activity was determined as previously described with minor modifications. Enzyme assays were performed in 96-well microplates using Z-Gly-Pro-p-nitroanilide as a substrate and measuring the increase in absorbance at 410 nm due to the release of p-nitroaniline. Ten µL of tenfold peptide or hydrolysate solution in 100 mM sodium phosphate buffer, pH 7 ([…] for LFHs), 30 µL of a 0.1 U/mL PEP solution in 100 mM sodium phosphate buffer (pH 7) and 35 µL of the same sodium phosphate buffer were pre-incubated at 30 °C for 5 min, and the mixture incubated with 25 µL of 2 mM Z-Gly-Pro-p-nitroanilide in 40% 1,4-dioxane for 30 min at the same temperature. The reaction was finished by the addition of 100 µL 10% Triton X-100 in 1 M sodium acetate buffer (pH 4), and the absorbance measured at 410 nm in a microplate reader. Data are expressed as the percentage of PEP residual activity with respect to a control without peptide (100%).
The IC50 value of a peptide was defined as the concentration required to inhibit 50% of the PEP activity and the value for each experiment was estimated by non-linear regression of the experimental data to a four-parameter logistic curve using the software package SigmaPlot v 13.0 (SPSS Inc., Chicago, IL, USA).

[3] = test system: transgenic C. elegans strain CL4176 engineered to express human Aβ1–42; assay: C. elegans paralysis assay (Aβ1–42-induced paralysis); format: in vivo, Caenorhabditis elegans
Description: as §1, §2
Paralysis is induced in strain CL4176 by the expression of a muscle-specific Aβ1–42 which depends on up-shifting temperature from 16 to 25 °C [7, 8]. For paralysis experiments, strain CL4176 maintained at 16 °C was egg-synchronized in plates containing NGM (control medium) and NGM with peptides (0.02–5 µg/mL). Transgene expression was induced by up-shifting the temperature from 16 to 25 °C, starting 24 h after egg laying and maintained for 24 h. The worms were incubated at 20 °C until all the worms in the experiment became paralyzed. Paralysis was scored 24 h after induction. Paralysis in induced worms was compared with non-induced worms (maintained at 16 °C until the end of the paralysis assay). Experiments were carried out at least in duplicate.

[4] = target: T1, prolyl endopeptidase (PEP); parameters: method as in 2 sources, ref 29 = [29]; PMID 26574880; doi:10.1039/C5FO01262G; 29. Hsieh C.-H. Wang T.-Y. Hung C.-C. Hsieh Y.-L. Hsu K.-C. Isolation of prolyl endopeptidase inhibitory peptides from a sodium caseinate hydrolysate Food Funct. 2016 7 565 573 10.1039/C5FO01262G 2657 ||| ref 31 = [31]; PMID 23675471; doi:10.1371/journal.pone.0063283; 31. Martorell P. Bataller E. Llopis S. Gonzalez N. Alvarez B. Monton F. Ortiz P. Ramon D. Genoves S. A cocoa peptide protects Caenorhabditis elegans from oxidative stress and β-amyloid peptide toxicit; conditions: cocoa hydrolysate peptide; cited from earlier work
[5] = 0.1 µg/mL, average paralysis curve of the independent trials
[6] = dose 0.1 µg/mL, trial 1, hours after temperature up-shift
[7] = dose 0.1 µg/mL, trial 2, hours after temperature up-shift
[8] = dose 0.1 µg/mL, trial 3, hours after temperature up-shift

O=C1O[C@H]([C@@H](O)CO)C(O)=C1O [vitamin C, reference compound]
worm survival after oxidative stress (in words) ([1]; vitamin C 10 µg/mL (Figure 4; method says 0.1 mg/mL), positive control): significant protection

Ac-RKWFHLW-NH2 [PACEI48L, synthetic heptapeptide Ac-RKWFHLW-NH2]
PEP Residual Activity (%) [2]: 61.4 ± 4.4 (a) %

ENLPEKA [PKH3, synthetic peptide identified in proteinase K lactoferrin hydrolysate, ENLPEKA]
PEP Residual Activity (%) [2]: 97.1 ± 0.1%
PEP inhibition (in words) [2]: failed to inhibit PEP

Ac-RKWHFLW-NH2 [PACEI50L]
decrease of paralyzed worms compared with control fed nematodes at 49 h ([3]; 0.1 µg/mL, average curves): 25.2%
% of non-paralyzed worms at onset paralysis [3, 5]: 99%
Onset Paralysis, time [3, 5]: 41 h
Paralyzed Worms (percentage at 49 h) [3, 5]: 42.3%
effect on paralysis (in words) ([3]; dose 0.02 µg/mL, data not shown): did not provide any effect
% of non-paralyzed worms at onset paralysis ([3]; dose 0.1 µg/mL, trial 1): 98.4%
Paralyzed Worms at 49 h ([3]; dose 0.1 µg/mL, trial 1): 48.7%
Onset Paralysis, time [3, 6]: 41 h
% of non-paralyzed worms at onset paralysis ([3]; dose 0.1 µg/mL, trial 2): 99.1%
Paralyzed Worms at 49 h ([3]; dose 0.1 µg/mL, trial 2): 21.9%
Onset Paralysis, time [3, 7]: 43 h
% of non-paralyzed worms at onset paralysis ([3]; dose 0.1 µg/mL, trial 3): 97.5%
Paralyzed Worms at 49 h ([3]; dose 0.1 µg/mL, trial 3): 56.2%
Onset Paralysis, time [3, 8]: 43 h
% of non-paralyzed worms at onset paralysis ([3]; dose 0.5 µg/mL, trial 1): 96.7%
Paralyzed Worms at 49 h ([3]; dose 0.5 µg/mL, trial 1): 41.3%
Onset Paralysis, time ([3]; dose 0.5 µg/mL, trial 1, hours after temperature up-shift): 45 h
% of non-paralyzed worms at onset paralysis ([3]; dose 0.5 µg/mL, trial 2): 99.2%
Paralyzed Worms at 49 h ([3]; dose 0.5 µg/mL, trial 2): 41.7%
Onset Paralysis, time ([3]; dose 0.5 µg/mL, trial 2, hours after temperature up-shift): 43 h
worm survival after oxidative stress (in words) ([1]; peptide 0.1 µg/mL, triplicate): none of them was able to increase the worm survival
PEP Residual Activity (%) [2]: 6.4 ± 2.3 (c) %

GGRPTYEEY [PKH5, synthetic peptide identified in proteinase K lactoferrin hydrolysate, …]
PEP Residual Activity (%) [2]: 96.9 ± 2.1%
PEP inhibition (in words) [2]: failed to inhibit PEP

DRDQYELL [PKH7, synthetic peptide identified in proteinase K lactoferrin hydrolysate, DRDQYELL]
PEP Residual Activity (%) [2]: 115.3 ± 4.2 %

RKAHFLA [PACEI50L-v2, PACEI50L derivative, both W residues at position 3 and 7 replaced with A, RKAHFLA]
final percentage of non-paralyzed worms, lower than the control conditions by ([3]; 0.1 µg/mL, average curves): 5.6%
% of non-paralyzed worms at onset paralysis [3, 5]: 92%
Onset Paralysis, time [3, 5]: 41 h
Paralyzed Worms (percentage at 49 h) [3, 5]: 73.1%
% of non-paralyzed worms at onset paralysis ([3]; dose 0.1 µg/mL, trial 1): 91.3%
Paralyzed Worms at 49 h ([3]; dose 0.1 µg/mL, trial 1): 74.9%
Onset Paralysis, time [3, 6]: 41 h
% of non-paralyzed worms at onset paralysis ([3]; dose 0.1 µg/mL, trial 2): 90.7%
Paralyzed Worms at 49 h ([3]; dose 0.1 µg/mL, trial 2): 75.9%
Onset Paralysis, time [3, 7]: 41 h
% of non-paralyzed worms at onset paralysis ([3]; dose 0.1 µg/mL, trial 3): 94.7%
Paralyzed Worms at 49 h ([3]; dose 0.1 µg/mL, trial 3): 68.4%
Onset Paralysis, time [3, 8]: 41 h
PEP inhibition [2]: did not exhibit a clear inhibitory effect

Ac-RKWLFHW-NH2 [PACEI52L, synthetic heptapeptide Ac-RKWLFHW-NH2]
PEP Residual Activity (%) [2]: 65.9 ± 3.6 (a) %

Ac-RKWFLHW-NH2 [PACEI49L, synthetic heptapeptide Ac-RKWFLHW-NH2]
PEP Residual Activity (%) [2]: 46.8 ± 9.1 (b) %

RIPSKV [PKH4, synthetic peptide identified in proteinase K lactoferrin hydrolysate, RIPSKV]
PEP Residual Activity (%) [2]: 109.6 ± 2.2 %
PEP inhibition (in words) [2]: failed to inhibit PEP

NIPMGL [PKH9, synthetic peptide identified in proteinase K lactoferrin hydrolysate, NIPMGL]
PEP Residual Activity (%) [2]: 95.5 ± 3.4%
PEP inhibition (in words) [2]: failed to inhibit PEP

DNYDNSAGKWWVT [Peptide 13L]
IC50 (PEP inhibition) [4]: 190 µg/mL

Ac-RKWHLFW-NH2 [PACEI51L, synthetic heptapeptide Ac-RKWHLFW-NH2]
PEP Residual Activity (%) [2]: 71.6 ± 4.9 (a) %

GILRPYL [PKH10, synthetic peptide identified in proteinase K lactoferrin hydrolysate, GILRPYL]
PEP Residual Activity (%) [2]: 103.9 ± 0.8%
PEP inhibition (in words) [2]: failed to inhibit PEP

RKWHFLA [PACEI50L-v1]
% of non-paralyzed worms at onset paralysis [3, 5]: 94%
Onset Paralysis, time [3, 5]: 41 h
Paralyzed Worms (percentage at 49 h) [3, 5]: 62.8%
% of non-paralyzed worms at onset paralysis ([3]; dose 0.1 µg/mL, trial 1): 98.0%
Paralyzed Worms at 49 h ([3]; dose 0.1 µg/mL, trial 1): 62.5%
Onset Paralysis, time [3, 6]: 41 h
% of non-paralyzed worms at onset paralysis ([3]; dose 0.1 µg/mL, trial 2): 91.7%
Paralyzed Worms at 49 h ([3]; dose 0.1 µg/mL, trial 2): 71.9%
Onset Paralysis, time [3, 7]: 41 h
% of non-paralyzed worms at onset paralysis ([3]; dose 0.1 µg/mL, trial 3): 93.3%
Paralyzed Worms at 49 h ([3]; dose 0.1 µg/mL, trial 3): 53.7%
Onset Paralysis, time [3, 8]: 41 h
PEP inhibition [2]: 20%

NEGLTW [PKH8, LF-derived hexapeptide NEGLTW]
PEP inhibitory activity (% inhibition) [2]: 12%
PEP Residual Activity (%) [2]: 87.1 ± 1.0 %

GILRPY [PKH6, synthetic peptide identified in proteinase K lactoferrin hydrolysate, GILRPY]
PEP Residual Activity (%) [2]: 97.2 ± 4.0%
PEP inhibition (in words) [2]: failed to inhibit PEP

DRDQY [PKH1, synthetic peptide identified in proteinase K lactoferrin hydrolysate, DRDQY]
PEP Residual Activity (%) [2]: 102.7 ± 7.0%

Ac-RKWLHFW-NH2 [PACEI53L, synthetic heptapeptide Ac-RKWLHFW-NH2]
PEP Residual Activity (%) [2]: 71.5 ± 4.5 (a) %

SVDGKEDLIW [PKH11]
pIC50 [2]: 2.74
PEP inhibitory activity (% inhibition) [2]: 22%
PEP Residual Activity (%) [2]: 78.0 ± 3.1 %

SVDGKEDLIA [PKH11-v1]
pIC50 [2]: 2.54
